From US11572590B2, “Methods for evaluating tumor cell spheroids using 3D microfluidic cell culture device” (Dana-Farber Cancer Institute, Inc., priority 2017, dated 2023)
Read-outs that look alike come from different tables or passages of the source.

Tests used:
Experiment in all cases: SelectScreen Kinase Profiling, single point inhibition and IC50 for off-target kinases
Type in all cases: biochemical
[1] = molecular target: off-target kinases (Homo sapiens, UniProt O75116); settings: ROCK2, ZLYTE, ATP Km app
[2] = molecular target: off-target kinases (Homo sapiens, UniProt O96013); settings: PAK4, ATP Km app, ZLYTE
[3] = molecular target: off-target kinases (Homo sapiens, UniProt P07333); settings: CSF1R (FMS), ATP Km app, ZLYTE
[4] = molecular target: off-target kinases (Homo sapiens, UniProt P08581); settings: MET (cMet), ZLYTE, ATP Km app
[5] = molecular target: off-target kinases (Homo sapiens, UniProt P21802); settings: FGFR2, ZLYTE, ATP Km app
[6] = molecular target: T1, off-target kinases (Homo sapiens, UniProt P42680); settings: TEC, LanthaScreen Binding
T1 sequence (P42680 1-631): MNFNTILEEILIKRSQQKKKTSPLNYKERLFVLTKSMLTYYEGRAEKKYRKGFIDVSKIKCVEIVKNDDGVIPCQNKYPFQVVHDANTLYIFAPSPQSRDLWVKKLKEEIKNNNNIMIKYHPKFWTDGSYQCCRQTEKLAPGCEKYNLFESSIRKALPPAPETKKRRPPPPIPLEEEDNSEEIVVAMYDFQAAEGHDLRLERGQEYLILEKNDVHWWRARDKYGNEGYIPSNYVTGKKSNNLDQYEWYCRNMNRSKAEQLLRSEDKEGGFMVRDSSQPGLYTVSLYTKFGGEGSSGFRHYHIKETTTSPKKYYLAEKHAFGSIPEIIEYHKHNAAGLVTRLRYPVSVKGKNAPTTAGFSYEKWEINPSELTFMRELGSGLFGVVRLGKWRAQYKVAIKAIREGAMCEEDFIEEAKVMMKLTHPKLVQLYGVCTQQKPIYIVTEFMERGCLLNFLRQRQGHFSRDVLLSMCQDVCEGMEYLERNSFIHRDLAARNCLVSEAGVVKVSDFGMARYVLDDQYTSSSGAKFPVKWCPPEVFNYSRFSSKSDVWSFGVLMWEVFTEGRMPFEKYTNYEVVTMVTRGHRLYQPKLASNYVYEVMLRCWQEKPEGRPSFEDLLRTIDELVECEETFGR

[7] = molecular target: off-target kinases (Homo sapiens, UniProt P43405); settings: SYK, 1000 μM, ATP Km app, ZLYTE
[8] = molecular target: off-target kinases (Homo sapiens, UniProt P49841); settings: GSK3B (GSK3 beta), ZLYTE, ATP Km app
[9] = molecular target: off-target kinases (Homo sapiens, UniProt Q96RG2); settings: PASK, ZLYTE, ATP Km app
[10] = molecular target: off-target kinases (Homo sapiens, UniProt Q9H0K1); settings: SNF1LK2, ATP Km app, ZLYTE

off-target kinases (Homo sapiens, UniProt P08581), sequence (P08581 25-1390): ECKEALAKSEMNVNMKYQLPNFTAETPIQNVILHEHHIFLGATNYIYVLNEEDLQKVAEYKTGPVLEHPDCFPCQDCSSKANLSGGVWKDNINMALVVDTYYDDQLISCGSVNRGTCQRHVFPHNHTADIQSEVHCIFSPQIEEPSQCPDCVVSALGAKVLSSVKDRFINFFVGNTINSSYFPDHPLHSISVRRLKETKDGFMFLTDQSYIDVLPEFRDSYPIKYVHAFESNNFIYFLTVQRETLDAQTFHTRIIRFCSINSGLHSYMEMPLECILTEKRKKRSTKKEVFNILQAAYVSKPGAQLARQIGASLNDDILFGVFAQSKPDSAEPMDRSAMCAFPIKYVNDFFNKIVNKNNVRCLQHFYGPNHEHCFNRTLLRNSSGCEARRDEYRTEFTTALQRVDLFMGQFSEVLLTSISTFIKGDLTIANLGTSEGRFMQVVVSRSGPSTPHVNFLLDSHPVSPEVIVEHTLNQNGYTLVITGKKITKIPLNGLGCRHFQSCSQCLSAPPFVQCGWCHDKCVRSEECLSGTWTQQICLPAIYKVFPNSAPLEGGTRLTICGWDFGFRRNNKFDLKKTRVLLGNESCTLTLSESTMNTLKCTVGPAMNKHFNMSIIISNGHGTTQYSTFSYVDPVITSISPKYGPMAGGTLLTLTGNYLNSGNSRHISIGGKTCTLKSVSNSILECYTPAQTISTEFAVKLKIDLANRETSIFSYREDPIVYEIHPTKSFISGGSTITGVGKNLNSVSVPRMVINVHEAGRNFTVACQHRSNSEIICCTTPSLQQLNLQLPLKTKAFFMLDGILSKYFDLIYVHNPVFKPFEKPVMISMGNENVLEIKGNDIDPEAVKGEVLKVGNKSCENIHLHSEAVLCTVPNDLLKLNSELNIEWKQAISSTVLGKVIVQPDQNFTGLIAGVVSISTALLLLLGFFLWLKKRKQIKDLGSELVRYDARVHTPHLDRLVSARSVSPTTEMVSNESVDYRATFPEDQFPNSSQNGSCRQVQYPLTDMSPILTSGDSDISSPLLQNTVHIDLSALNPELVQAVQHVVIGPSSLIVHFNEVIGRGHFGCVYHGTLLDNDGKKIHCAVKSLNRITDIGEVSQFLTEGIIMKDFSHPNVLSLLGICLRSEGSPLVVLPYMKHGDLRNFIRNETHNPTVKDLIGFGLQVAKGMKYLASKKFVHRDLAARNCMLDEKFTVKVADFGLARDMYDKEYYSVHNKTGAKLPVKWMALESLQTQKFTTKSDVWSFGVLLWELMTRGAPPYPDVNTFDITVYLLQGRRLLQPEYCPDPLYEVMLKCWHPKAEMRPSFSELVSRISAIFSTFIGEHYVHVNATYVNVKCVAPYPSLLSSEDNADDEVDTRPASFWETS
off-target kinases (Homo sapiens, UniProt Q96RG2), sequence (Q96RG2 whole entry): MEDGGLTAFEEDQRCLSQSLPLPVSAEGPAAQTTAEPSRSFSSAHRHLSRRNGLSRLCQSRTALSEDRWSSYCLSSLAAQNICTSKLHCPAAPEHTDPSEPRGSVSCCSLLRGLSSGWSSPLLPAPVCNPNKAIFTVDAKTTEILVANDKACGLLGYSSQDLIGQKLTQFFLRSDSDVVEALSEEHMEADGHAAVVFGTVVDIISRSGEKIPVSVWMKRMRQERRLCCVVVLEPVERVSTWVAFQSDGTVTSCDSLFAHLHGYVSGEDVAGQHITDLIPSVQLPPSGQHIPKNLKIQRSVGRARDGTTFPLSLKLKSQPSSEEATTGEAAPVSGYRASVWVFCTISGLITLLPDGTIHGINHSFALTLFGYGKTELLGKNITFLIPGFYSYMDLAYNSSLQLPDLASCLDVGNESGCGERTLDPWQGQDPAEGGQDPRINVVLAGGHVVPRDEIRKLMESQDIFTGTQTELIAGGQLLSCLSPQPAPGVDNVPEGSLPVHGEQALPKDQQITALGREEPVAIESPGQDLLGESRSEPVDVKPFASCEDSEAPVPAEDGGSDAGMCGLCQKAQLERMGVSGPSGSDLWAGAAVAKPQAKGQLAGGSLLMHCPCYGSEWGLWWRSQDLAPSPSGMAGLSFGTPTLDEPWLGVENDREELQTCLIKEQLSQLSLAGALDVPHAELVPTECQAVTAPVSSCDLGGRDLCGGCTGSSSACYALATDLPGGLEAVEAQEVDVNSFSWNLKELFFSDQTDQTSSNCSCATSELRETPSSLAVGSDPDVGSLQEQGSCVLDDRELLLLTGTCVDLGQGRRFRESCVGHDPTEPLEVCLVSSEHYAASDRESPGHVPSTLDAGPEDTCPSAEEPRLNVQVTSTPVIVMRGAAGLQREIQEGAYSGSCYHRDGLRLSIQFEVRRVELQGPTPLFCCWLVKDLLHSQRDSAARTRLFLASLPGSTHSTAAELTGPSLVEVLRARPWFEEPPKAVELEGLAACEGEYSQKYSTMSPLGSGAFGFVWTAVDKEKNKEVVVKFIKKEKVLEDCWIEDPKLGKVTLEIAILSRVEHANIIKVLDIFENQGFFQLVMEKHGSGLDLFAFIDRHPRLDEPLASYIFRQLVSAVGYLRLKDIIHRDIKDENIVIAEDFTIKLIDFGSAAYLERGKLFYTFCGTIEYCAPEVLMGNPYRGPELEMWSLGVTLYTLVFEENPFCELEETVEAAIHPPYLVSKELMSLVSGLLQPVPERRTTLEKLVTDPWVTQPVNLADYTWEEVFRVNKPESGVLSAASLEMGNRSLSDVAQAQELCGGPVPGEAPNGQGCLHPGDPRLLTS
off-target kinases (Homo sapiens, UniProt O75116), sequence (O75116 whole entry): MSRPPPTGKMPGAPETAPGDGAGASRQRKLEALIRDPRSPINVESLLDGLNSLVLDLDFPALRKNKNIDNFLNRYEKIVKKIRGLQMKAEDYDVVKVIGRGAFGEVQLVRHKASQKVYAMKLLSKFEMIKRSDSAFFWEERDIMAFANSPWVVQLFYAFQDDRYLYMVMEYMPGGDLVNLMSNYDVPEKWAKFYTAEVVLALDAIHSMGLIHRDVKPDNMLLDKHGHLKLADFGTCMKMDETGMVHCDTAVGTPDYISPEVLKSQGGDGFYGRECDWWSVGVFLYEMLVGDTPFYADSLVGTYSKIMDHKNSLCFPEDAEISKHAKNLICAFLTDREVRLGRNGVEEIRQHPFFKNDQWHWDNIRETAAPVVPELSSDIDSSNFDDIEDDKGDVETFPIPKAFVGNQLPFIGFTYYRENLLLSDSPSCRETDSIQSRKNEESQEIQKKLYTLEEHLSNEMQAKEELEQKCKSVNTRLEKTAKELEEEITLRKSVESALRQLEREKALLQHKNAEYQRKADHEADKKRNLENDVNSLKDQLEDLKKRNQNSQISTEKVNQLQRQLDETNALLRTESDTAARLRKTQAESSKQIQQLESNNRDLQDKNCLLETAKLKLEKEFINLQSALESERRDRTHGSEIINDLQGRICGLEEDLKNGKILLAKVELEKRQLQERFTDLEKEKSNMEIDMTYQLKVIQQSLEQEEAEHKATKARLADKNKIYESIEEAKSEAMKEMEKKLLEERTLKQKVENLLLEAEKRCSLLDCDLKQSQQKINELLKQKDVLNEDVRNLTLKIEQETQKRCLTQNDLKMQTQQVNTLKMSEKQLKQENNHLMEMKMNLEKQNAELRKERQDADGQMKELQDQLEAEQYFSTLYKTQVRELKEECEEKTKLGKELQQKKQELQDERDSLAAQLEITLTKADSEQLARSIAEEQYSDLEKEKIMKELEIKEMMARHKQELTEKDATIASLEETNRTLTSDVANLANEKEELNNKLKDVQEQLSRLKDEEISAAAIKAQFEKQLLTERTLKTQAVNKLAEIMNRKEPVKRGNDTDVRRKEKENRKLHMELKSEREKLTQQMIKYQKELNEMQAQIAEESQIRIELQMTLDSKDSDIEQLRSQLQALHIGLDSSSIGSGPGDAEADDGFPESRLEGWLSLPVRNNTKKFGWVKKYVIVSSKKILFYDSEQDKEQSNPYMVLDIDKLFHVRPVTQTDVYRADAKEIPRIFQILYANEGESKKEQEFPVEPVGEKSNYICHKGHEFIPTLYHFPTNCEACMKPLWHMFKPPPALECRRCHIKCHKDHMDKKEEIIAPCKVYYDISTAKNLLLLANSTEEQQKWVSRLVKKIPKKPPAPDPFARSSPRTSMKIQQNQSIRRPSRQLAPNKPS
off-target kinases (Homo sapiens, UniProt O96013), sequence (O96013 whole entry): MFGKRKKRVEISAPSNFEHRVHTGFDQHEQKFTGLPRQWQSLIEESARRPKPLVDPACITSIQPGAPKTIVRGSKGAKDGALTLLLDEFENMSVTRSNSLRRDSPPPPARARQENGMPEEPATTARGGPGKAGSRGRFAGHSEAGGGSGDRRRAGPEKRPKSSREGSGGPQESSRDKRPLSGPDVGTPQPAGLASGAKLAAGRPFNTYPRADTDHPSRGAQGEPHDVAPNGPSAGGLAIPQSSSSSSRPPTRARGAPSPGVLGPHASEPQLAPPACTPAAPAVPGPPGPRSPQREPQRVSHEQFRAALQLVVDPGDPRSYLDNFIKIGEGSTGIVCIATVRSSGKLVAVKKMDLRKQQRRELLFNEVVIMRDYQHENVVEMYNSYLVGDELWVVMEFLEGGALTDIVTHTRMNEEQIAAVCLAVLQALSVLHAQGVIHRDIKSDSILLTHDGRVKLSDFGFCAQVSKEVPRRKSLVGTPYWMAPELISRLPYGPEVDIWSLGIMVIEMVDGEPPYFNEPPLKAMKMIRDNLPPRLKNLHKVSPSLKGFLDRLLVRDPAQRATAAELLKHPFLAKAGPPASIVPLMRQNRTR
off-target kinases (Homo sapiens, UniProt P49841), sequence (P49841 whole entry): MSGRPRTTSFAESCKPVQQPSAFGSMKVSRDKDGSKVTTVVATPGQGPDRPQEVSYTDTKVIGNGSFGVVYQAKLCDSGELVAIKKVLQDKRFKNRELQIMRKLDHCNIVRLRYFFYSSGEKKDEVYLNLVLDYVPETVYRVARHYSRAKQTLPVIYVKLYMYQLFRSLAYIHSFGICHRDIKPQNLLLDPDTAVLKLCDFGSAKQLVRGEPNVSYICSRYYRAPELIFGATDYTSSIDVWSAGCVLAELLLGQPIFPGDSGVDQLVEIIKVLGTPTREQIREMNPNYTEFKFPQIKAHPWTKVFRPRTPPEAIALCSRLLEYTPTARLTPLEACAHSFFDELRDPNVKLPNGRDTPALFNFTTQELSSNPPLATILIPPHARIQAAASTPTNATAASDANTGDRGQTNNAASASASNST

Compound: N#Cc1cc(-c2ncnc(Nc3ccc(N4CCN(C5COC5)CC4)cc3)n2)ccc1OC1CCOCC1 [Compound 1, 5-(4-((4-(4-(oxetan-3-yl)piperazin-1-yl)phenyl)amino)-1,3,5-triazin-2-yl)-2-((tetrahydro-2H-pyran-4-yl)oxy)benzonitrile]
- inhibition ([1]; read-out: % Inhibition 1): 12%
- inhibition ([1]; read-out: % Inhibition 2): 14%
- inhibition ([1]; read-out: % Inhibition Avg): 13%
- inhibition ([2]; read-out: % Inhibition 1): 91%
- inhibition ([2]; read-out: % Inhibition 2): 90%
- inhibition ([2]; read-out: % Inhibition Avg): 90%
- inhibition ([3]; read-out: % Inhibition 1): 91%
- inhibition ([3]; read-out: % Inhibition 2): 96%
- inhibition ([3]; read-out: % Inhibition Avg): 93%
- inhibition ([4]; read-out: % Inhibition 1): 30%
- inhibition ([4]; read-out: % Inhibition 2): 33%
- inhibition ([4]; read-out: % Inhibition Avg): 31%
- inhibition ([5]; read-out: % Inhibition 1): 12%
- inhibition ([5]; read-out: % Inhibition 2): 11%
- inhibition ([5]; read-out: % Inhibition Avg): 12%
- inhibition ([6]; read-out: % Inhibition 1): 0%
- inhibition ([6]; read-out: % Inhibition 2): 2%
- inhibition ([6]; read-out: % Inhibition Avg): 1%
- inhibition at 1000 µM ([7]; read-out: % Inhibition 1): 44%
- inhibition at 1000 µM ([7]; read-out: % Inhibition 2): 49%
- inhibition at 1000 µM ([7]; read-out: % Inhibition Avg): 46%
- inhibition ([8]; read-out: % Inhibition 1): 21%
- inhibition ([8]; read-out: % Inhibition 2): 21%
- inhibition ([8]; read-out: % Inhibition Avg): 21%
- inhibition ([9]; read-out: % Inhibition 1): 3%
- inhibition ([9]; read-out: % Inhibition 2): 1%
- inhibition ([9]; read-out: % Inhibition Avg): 2%
- inhibition ([10]; read-out: % Inhibition 1): 88%
- inhibition ([10]; read-out: % Inhibition 2): 88%
- inhibition ([10]; read-out: % Inhibition Avg): 88%
